Experimental data taken from patent US5552156A, “Liposomal and micellular stabilization of camptothecin drugs” (Ohio State University, priority 1995, dated 1996).
“Also recorded” adds a separate entry of the source.

Legend:
Format in all cases: physicochemical
[1] = Steady-state fluorescence anisotropy in solvents and liposomes; settings: for steady-state anisotropy (a), DMPC: DMPC liposomes, 1/a vs. 1/[lipid] plot; for steady-state anisotropy (a), DMPC / steady-state anisotropy (a), DMPG / steady-state anisotropy (a), PBS / steady-state anisotropy (a), glycerol / steady-state anisotropy (a), octanol / steady-state anisotropy (a), DSPC: 37° C.; for steady-state anisotropy (a), DMPG: DMPG liposomes; for steady-state anisotropy (a), PBS / steady-state anisotropy (a), glycerol / steady-state anisotropy (a), octanol: 1 μM drug; for limiting fluorescence anisotropy a0: extrapolated to -25° C.; for limiting fluorescence anisotropy a0 / steady-state anisotropy (a), glycerol: glycerol; for steady-state anisotropy (a), DSPC: DSPC liposomes
Procedure: Steady-state fluorescence measurements were obtained on a SLM Model 4800C. spectrofluorometer with a thermostated cuvette compartment. This instrument was interfaced with an IBM PS/2 model 55 SX computer. Excitation and emission spectra were recorded with an excitation resolution of 8 nm and an emission resolution of 4 nm. In all cases spectra were corrected for background fluorescence and scatter from unlabeled lipids or from solvents by subtraction of the spectrum of a blank. Steady-state fluorescence intensity measurements were made in the absence of polarizer. Steady-state anisotropy (a) measurements were determined with the instrument in the "T-format" for simultaneous measurement of two polarized intensities. The alignment of polarizers were checked routinely using a dilute suspension of 0.25 μm polystyrene microspheres from Polysciences, Inc, Warrington, Pa., in water; anisotropy values of >0.99 were obtained. The anisotropy was calculated from a=(Ivv -GlVH)/(Ivv +GIVH), where G-IVH /IHH and the subscripts refer to vertical and horizontal orientations of the excitation and emission polarizers, respectively.
Anisotropy measurements for camptothecin, camptothecin carboxylate sodium salt, and 10,11-methylenedioxycamptothecin were conducted using exciting light of 370 nm and 420 nm long wave pass filters on each emission channel in order to isolate the fluorescence signal from background scatter and signal. For topotecan a 400 nm excitation wavelength and a 500 nm emission filter were used and for 9-aminocamptothecin a 375 nm excitation and a wavelength 420 nm emission filter were used. For AMC and CMC, a 370 nm excitation wavelength and a 400 nm emission filter were used. For 10-hydroxycamptothecin 375 nm excitation wavelength 500 nm emission filter was used. Emission filters were obtained from Oriel Corp. Stamford, Conn. The combination of exciting light and emission filters allows one to adequately separate the fluorescence from the background signal. The contribution of background fluorescence, together with scattered light, was typically less than 1% of the total intensity. Since the lactone ring of the camptothecin drug undergoes hydrolysis in aqueous medium, all measurements were completed within the shortest possible time, less than 1 minute after mixing the drug stock solution with PBS or the liposomes. In each case, analysis was initiated immediately after mixing the drug stock solution with PBS or with the liposomes. All measurements were performed at 37° C. unless otherwise noted.
(§1) While the spectral changes provide qualitative evidence that the camptothecin drugs bind the liposome membranes, fluorescence anisotropy titration, offers the most sensitive means for quantitatively assessing the extent of the binding. The fluorescence anisotropy titration was performed according to the method of Burke and Tritton, Biochemistry 24: 1768-1776 (1985).
A steady-state fluorescence anisotropy (a) measurement is related to the rotational rate of the fluorescent molecule through the Perrin Equation: […]
where a0 is the limiting fluorescence anisotropy value, that is, the anisotropy value in the absence of depolarizing rotations, T is the excited-state lifetime, and .phi. is the rotational correlative time of the fluorophore. According to Equation 1, changes in either the T or .phi. values of a fluorescent compound can modulate its steady-state anisotropy.
The limiting fluorescence anisotropy (a0) values were also measured. The maximum values of (a) were obtained by dissolving the camptothecin drugs in the viscous solvent glycerol and cooling the samples to low temperatures. Steady-stated anisotropy (a) values were determined for samples containing 1 μM drug at 37° C.
Where the solvent viscosity is high and temperature is low, depolarizing rotations are at a minimum. By extrapolating these (a) values to -25° C., the limiting anisotropy values (a0) for the camptothecin drugs, were determined. […]

[2] = Overall association constant by fluorescence anisotropy titration, DMPG liposomes; settings: for overall association constant K, DMPG: DMPG (negatively charged, fluid phase), PBS, 37° C.; for bound drug level, DMPG: DMPG liposomes, 0.29M lipid, estimated
Procedure: as §1
The concentrations of free camptothecin drugs and camptothecin drugs associated with liposomes were determined at various lipid concentrations. All experiments were conducted in glass tubes pretreated with a silating agent, Surfacil, from Pearce Chemical, Rockford, Ill. The titration was conducted at camptothecin drug concentration of 1×10^-6 M in PBS at 37° C. Anisotropy values at each lipid concentration were determined within less than 30 seconds following the addition of the camptothecin drugs to the liposome suspension. The (a) values were determined for fixed drug concentration, typically 2 μM, while the lipid concentration was varied from 0 to 0.29M. By varying the lipid concentration rather than varying the drug concentration, the problem of self-association phenomenon which occurs for camptothecin drugs concentrations in excess of 10 μM is avoided. Also, the well-known phenomenon known as inner filter effect which occurs using fluorescent material at high optical densities is a is avoided.
Adsorption isotherms like those shown in FIGS. 4A and 4B were used to determine overall association constants for the camptothecin drugs. Overall association constants are defined as: […]
where [AB ] represents the concentration of the camptothecin drug bound to the vesicle membrane, [AF ] represents the concentration of free drug, and [L] represents the total lipid concentration in the liposome suspension. This equation is valid when the concentration of free lipid is approximately equal to the concentration of total lipid, that is, the concentration of free lipid is in great excess over the concentration of bound drug. Provided this concentration is satisfied, K may be determined from the inverse of the slope of a double reciprocal plot according to (Burke and Tritton, Biochemistry 24:1776, 1985). In such a plot, 1/bound fraction of the total camptothecin drug is plotted vs. 1/[lipid], with a y-intercept value of 1.
The stabilization of camptothecin drugs was determined using different lipids. Three types of lipids (and thus 3 types of membranes) were examined: fluid-phase and electroneutral L-α-dimyristoylphosphatidylcholine (DMPC); fluid-phase and negatively-charged L-α-dimyristoylphosphatidylglycerol (DMPG), and solid-phase and electroneutral L-α-distearoylphosphatidylcholine (DSPC). While DMPC and DMPG have identical chain length, the charge on their head groups differ. DMPC and DSPC have identical head groups, but DMPC has acyl chains having 14 carbons per chain, which are four carbons shorter than the DSPC, which has 18 carbons per chain. This difference of 4-carbon chain length results in DMPC being fluid-phase at 37° C. while DSPC is solid-phase. The 7 camptothecin drugs listed in Table III were combined with liposomes containing the above lipids.
FIGS. 4A and 4B show the extent of camptothecin drug binding to liposomes as a function of lipid concentration for DMPC and DMPG liposomes. DMPC liposomes were made as in Example 1, at lipid concentrations from 0 to 0.29M, using CMC, 10-hydroxycamptothecin, 10,11-methylenedioxy-camptothecin, topotecan, camptothecin, and camptothecin carboxylate sodium salt, as shown in FIG. 4B. DMPG liposomes were made as in Example 2, at lipid concentrations from 0 to 0.29M, using 9-chloro-10,11-methylenedioxycamptothecin CMC, 10,11-methylenedioxycamptothecin, camptothecin, and topotecan, 9-aminocamptothecin, as shown in FIG. 4A. The lipid concentration […] of the data using double-reciprocal plots gave identical overall association/binding constants of 100M^-1.

[3] = Overall association constant by fluorescence anisotropy titration, DSPC liposomes; settings: for overall association constant K, DSPC: DSPC (electroneutral, solid phase), PBS, 37° C.
Procedure: The concentrations of free camptothecin drugs and camptothecin drugs associated with liposomes were determined at various lipid concentrations. […] The titration was conducted at camptothecin drug concentration of 1×10^-6 M in PBS at 37° C. Anisotropy values at each lipid concentration were determined within less than 30 seconds following the addition of the camptothecin drugs to the liposome suspension. […] By varying the lipid concentration rather than varying the drug concentration, the problem of self-association phenomenon which occurs for camptothecin drugs concentrations in excess of 10 μM is avoided. Also, the well-known phenomenon known as inner filter effect which occurs using fluorescent material at high optical densities is a is avoided.

CCC1(O)C(=O)OCc2c1cc1n(c2=O)Cc2cc3c(Cl)c4c(cc3nc2-1)OCO4 (stereo not drawn) [9-chloro-10,11-methylenedioxycamptothecin]
steady-state anisotropy (a), DMPC [1]: 0.202
steady-state anisotropy (a), DMPG [1]: 0.207
steady-state anisotropy (a), PBS [1]: 0.025
limiting fluorescence anisotropy a0 [1]: 0.367
steady-state anisotropy (a), glycerol [1]: 0.363
steady-state anisotropy (a), octanol [1]: 0.098
overall association constant K, DMPG [2]: 320 M⁻¹
bound drug level, DMPG [2]: 99%
overall association constant K, DSPC [3]: 500 M⁻¹

CCC1(O)C(=O)OCc2c1cc1n(c2=O)Cc2cc3cc4c(cc3nc2-1)OCO4 (stereo not drawn) [10,11-methylenedioxycamptothecin]
steady-state anisotropy (a), DMPC [1]: 0.168
steady-state anisotropy (a), DMPG [1]: 0.206
steady-state anisotropy (a), PBS [1]: 0.021
limiting fluorescence anisotropy a0 [1]: 0.374
steady-state anisotropy (a), glycerol [1]: 0.357
steady-state anisotropy (a), octanol [1]: 0.089

CCC1(O)C(=O)OCc2c1cc1n(c2=O)Cc2cc3cc(O)ccc3nc2-1 (stereo not drawn) [10-hydroxycamptothecin]
steady-state anisotropy (a), DMPC [1]: 0.191
steady-state anisotropy (a), DMPG [1]: 0.201
steady-state anisotropy (a), PBS [1]: 0.021
limiting fluorescence anisotropy a0 [1]: 0.372
steady-state anisotropy (a), glycerol [1]: 0.331
steady-state anisotropy (a), octanol [1]: 0.127
overall association constant K, DMPG [2]: 75 M⁻¹

CC[C@@]1(O)C(=O)OCc2c1cc1n(c2=O)Cc2cc3ccccc3nc2-1 [camptothecin]
steady-state anisotropy (a), DMPC [1]: 0.127
steady-state anisotropy (a), DMPG [1]: 0.122
steady-state anisotropy (a), DSPC [1]: 0.087
steady-state anisotropy (a), PBS [1]: 0.007
enhancement in steady-state anisotropy (a) value ([1]; bound to DMPG liposomes): 17 -fold
limiting fluorescence anisotropy a0 [1]: 0.383
steady-state anisotropy (a), glycerol [1]: 0.334
steady-state anisotropy (a), octanol [1]: 0.051
bound drug level, DMPG [2]: 97%
overall association constant K, DSPC [3]: 300 M⁻¹
binding preference for DSPC liposomes over DMPC liposomes ([3]; solid-phase DSPC over fluid-phase DMPC): 3 -fold

CC[C@@]1(O)C(=O)OCc2c1cc1n(c2=O)Cc2cc3c(CN(C)C)c(O)ccc3nc2-1 [topotecan]
steady-state anisotropy (a), DMPC [1]: 0.125
steady-state anisotropy (a), DMPG [1]: 0.170
steady-state anisotropy (a), DSPC [1]: 0.059
steady-state anisotropy (a), PBS [1]: 0.008
limiting fluorescence anisotropy a0 [1]: 0.367
steady-state anisotropy (a), glycerol [1]: 0.320
steady-state anisotropy (a), octanol [1]: 0.071
reduced ability to bind negatively-charged liposome membranes relative to CMC ([2]; DMPG): 6 -fold
overall association constant K, DMPG [2]: 50 M⁻¹
binding preference DMPG over DMPC ([2]; DMPG compared to DMPC): preferentially binds negatively charged DMPG liposomes as compared to DMPC liposomes; also recorded: strong binding preference for the negatively-charged lipid DMPG
bound drug level, DMPG [2]: 93%
binding preference for DSPC liposomes over DMPC liposomes ([3]; dspc over dmpc liposomes): 5 -fold
